Data set [1] in a line: Stability of the isolated free base on storage. Format: physicochemical. Conditions: yellow oil, converted to hydrochloride salt for long-term storage.
A further data set has as its target human 5-HT2A receptor (Homo sapiens, UniProt P28223). The experiment in a line: 5HT2A Ke determination in FLIPR assay. Type of data set: cell-based.

Sequence of human 5-HT2A receptor (P28223 whole entry): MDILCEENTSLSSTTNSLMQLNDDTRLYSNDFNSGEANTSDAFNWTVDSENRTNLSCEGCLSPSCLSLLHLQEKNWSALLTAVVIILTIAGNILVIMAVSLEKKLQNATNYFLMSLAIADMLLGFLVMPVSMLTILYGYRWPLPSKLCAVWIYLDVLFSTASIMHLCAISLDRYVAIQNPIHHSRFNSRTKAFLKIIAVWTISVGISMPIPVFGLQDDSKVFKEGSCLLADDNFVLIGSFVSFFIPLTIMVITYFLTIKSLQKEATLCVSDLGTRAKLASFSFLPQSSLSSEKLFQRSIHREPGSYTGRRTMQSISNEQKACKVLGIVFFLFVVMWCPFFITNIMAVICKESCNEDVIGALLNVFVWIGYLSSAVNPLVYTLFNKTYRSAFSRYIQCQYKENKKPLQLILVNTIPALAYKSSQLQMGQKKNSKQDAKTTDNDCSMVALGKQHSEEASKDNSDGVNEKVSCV

Turning to `COc1cc2c3c(c1OC)-c1cc4c(cc1CC3NCC2)OCO4` (stereo not drawn) [Compound 8a, 1,2-dimethoxy-5,6,6a,7-tetrahydro-4H-benzo[de][1,3]benzodioxolo[5,6-g]quinoline], the “stability of the compound” value in data set [1] is “unstable”.
Take `COc1cc2c3c(c1OC)-c1cc4c(cc1CC3N(C(C)=O)CC2)OCO4` (stereo not drawn) [Compound 8c, 1,2-dimethoxy-6-acetyl-5,6,6a,7-tetrahydro-4H-benzo[de][1,3]benzodioxolo[5,6-g]quinoline]: the Kb at human 5-HT2A receptor was > 10 µM.
Same read-out and setting: the same measure for `COc1cc2c3c(c1OC)-c1cc4c(cc1CC3N(S(C)(=O)=O)CC2)OCO4` (stereo not drawn) [Compound 8d, 1,2-dimethoxy-6-methanesulfonyl-5,6,6a,7-tetrahydro-4H-benzo[de][1,3]benzodioxolo[5,6-g]quinoline]: > 10 µM.

The values are drawn from paper PMC2918227 (Bioorganic & medicinal chemistry, 2010).
